Where a name gives a salt, the structure may show the parent alone.
Experiments:
[1] = for hygroscopicity / water adsorbed (hygroscopicity): dihydrochloride; for water adsorbed (hygroscopicity): content to which the form adsorbs water
beagles = conditions: dog, in vivo
Method: This study evaluated the cardiovascular effects of high doses of 6R-BH4 in combination with the PDE5 inhibitor sildenafil citrate in vivo. Eight male research nonnaïve and naïve purebred beagles were dosed in a double Latin square crossover design as described in the following table. All animals were dosed by oral gavage. Test articles were administered at a dose volume of 5 mL/kg (for a total volume of 10 mL/kg for the combination dose); control animals were dosed at a dose volume of 10 mL/kg. 6R-BH4 (sapropterin dihydrochloride) provided as 300 mg tablets (100 mg active 6R-BH4/tablet) stored at room temperature with desiccant.
At initiation of treatment, the animals were approximately 7 to 10 months old, and their body weights prior to dosing ranged from 7.8 to 12.0 kg.
At least 2 weeks prior to initiation of treatment, animals were fasted overnight, anesthetized, and an electrocardiogram (ECG) and blood pressure transmitter were implanted into the abdomen and sutured to the abdominal wall. The blood pressure catheter was placed in an artery and advanced to the abdominal aorta. Animals were checked twice daily (a.m. and p.m.) for mortality, abnormalities, and signs of pain and distress. Additional findings were recorded as observed.
Detailed observations were taken three times during the predose phase (including the day before dosing) and on Days 3 and 10 of the dosing phase. For each dosing day, ECG and pressure measurements were recorded for at least 90 minutes prior to dosing, continuously for at least 8 hours after dosing, and then for one period of at least 15 minutes in duration each hour through at least 24 hours postdose. Blood pressure measurements included systolic, diastolic, and mean arterial pressures and pulse pressure (systolic-diastolic). […]
Quantitative evaluation of ECG measurements, including RR interval, QT, and rate-corrected QT (QTc, using Fridericia's method), were done.
Positive inotropic effects (+dP/dtmax) and heart rate were calculated from a left ventricular pressure signal predose and approximately 2, 4, 8, 12, and 24 hours postdose. […]

[2] = system: sickle cell transgenic (PS) mice; conditions: administration to sickle cell transgenic (PS) mice; cited from earlier work
hypertensive patients = assay: Study 2: dose-response of oral BH4 on blood pressure and heart rate, after 2-week vitamin C run-in; format: in vivo, human
Method: Prior studies have used parenteral infusion of BH4 or a single oral dose; thus it was not known whether long-term oral BH4 over a period of days to weeks would result in a sustained improvement in endothelial dysfunction. […] Two studies were conducted to investigate the duration of action of oral BH4 and the response of hypertensive subjects to different doses of BH4. […] Patients were continued on their current anti-hypertensive therapy which remained unchanged. […] BH4 powder was obtained from Schircks Laboratories (Jona, Switzerland). BH4 when administered with vitamin C was compounded with vitamin C at a ratio of 1 mg of vitamin C/1 mg BH4 into appropriate sized capsules. Subjects were advised to keep the pills in a freezer or refrigerator. For both study 1 and study 2, the primary end point after statistical analysis was a reduction of systolic, mean and diastolic BP during BH4 therapy. Secondary end points included improvement of endothelial function as FMD. Linear mixed effects models for repeated measures data were used to analyze change in BP from baseline to end of treatment period and differences in change between 100 mg and 200 mg dose groups. A quadratic term for week was included in the model to account for non-linear trends over the treatment period. Dose, week and week squared were the main effect terms in the model; dose by week and dose by week squared were the interaction terms in the model. Significant interaction terms indicate a difference in the pattern of change between the two dose groups. FMD data was analyzed using the two-tailed student t-test. […] Of the 20 subjects who qualified for participation, 4 were excluded during the run-in phase because of inability to return for follow-up appointments. There were 6 male subjects, mean age 59.5±8.3 years. Eight subjects received 200 mg b.i.d (twice daily) of oral BH4 and 8 received 100 mg b.i.d. of oral BH4. […] Because BH4 was compounded with vitamin C in a 1:1 ratio, all subjects received vitamin C, at their assigned BH4 dose, twice a day during the first 2-week period. After this 2-week run-in period, subjects received BH4 only at their assigned dosage for the next 4 weeks. Weekly heart rate and BP measurements were made during the run-in period and treatment period. Mean blood pressure was calculated as: (SBP+2×DBP)/3. BH4 was then stopped and follow-up was performed at 1 and 4 weeks after discontinuation where BP and heart rate measurements were made. Routine chemistries and LFT's were drawn prior to initiation of medication, at the end of BH4 therapy and one month after discontinuation of BH4.

Q: For C[C@H](O)[C@H](O)[C@H]1CNc2nc(N)[nH]c(=O)c2N1.Cl.Cl [form J, (6R)-L-erythro-tetrahydrobiopterin dihydrochloride], which hygroscopicity [1] is on record?
A: slightly hygroscopic

Q: With C[C@H](O)[C@H](O)[C@H]1CNc2nc(N)[nH]c(=O)c2N1.Cl.Cl [form A, (6R)-L-erythro-tetrahydrobiopterin dihydrochloride] as the molecule, how does the “water adsorbed (hygroscopicity)” value [1] read?
A: about 3 percent by weight

Q: And the hygroscopicity [1]?
A: slightly hygroscopic

Q: And the “phase equilibration test of suspensions” value ([1]; tetrahydrofuran five days or tertiary-butyl methyl ether 18 hours, under nitrogen at room temperature, then filtration and air-drying)?
A: unchanged

Q: What does the source list for CCCc1nn(C)c2c(=O)[nH]c(-c3cc(S(=O)(=O)N4CCN(C)CC4)ccc3OCC)nc12 [sildenafil citrate]?
A: Arterial pulse pressure (beagles): significantly increased; Heart rate (beagles): significantly increased

Q: For C[C@H](O)[C@H](O)[C@H]1CNc2nc(N)[nH]c(=O)c2N1.Cl.Cl [form D, (6R)-L-erythro-tetrahydrobiopterin dihydrochloride], which hygroscopicity [1] is on record?
A: slightly hygroscopic

Q: Which results are given for C[C@H](O)[C@H](O)[C@H]1CNc2nc(N)[nH]c(=O)c2N1.Cl.Cl [form K, (6R)-L-erythro-tetrahydrobiopterin dihydrochloride]?
A: water adsorbed (hygroscopicity) [1]: about 2.0 percent by weight; hygroscopicity [1]: slightly hygroscopic

Q: For C[C@H](O)C(=O)C1=Nc2c(nc(N)[nH]c2=O)NC1 [sepiapterin], which blood cell adhesion [2] is on record?
A: attenuation

Q: Which “diastolic arterial BP” value (hypertensive patients; Study 2, 16 subjects, after 2 weeks of vitamin C run-in, 84±13 before, p=ns) does the source give for O=C1O[C@H]([C@@H](O)CO)C(O)=C1O [vitamin C, ascorbic acid, reference compound] here?
A: 86±11 mmHg

Q: What about the “mean arterial BP” value (hypertensive patients; Study 2, 16 subjects, after 2 weeks of vitamin C run-in, 106±10 before, p=ns) of the same molecule?
A: 106±12 mmHg

Q: What about the “systolic arterial BP” value (hypertensive patients; Study 2, 16 subjects, after 2 weeks of vitamin C run-in, 152±11 before, p=ns) of the same molecule?
A: 148±19 mmHg

Q: And the “change in heart rate or BP during the run-in phase” value (hypertensive patients; Study 2, vitamin C twice a day for 2 weeks, either group)?
A: no significant change

Q: With C[C@H](O)[C@H](O)[C@H]1CNc2nc(N)[nH]c(=O)c2N1.Cl.Cl [form E, (6R)-L-erythro-tetrahydrobiopterin dihydrochloride] as the molecule, how does the hygroscopicity [1] read?
A: non-hygroscopic

Q: For C[C@H](O)[C@H](O)[C@H]1CNc2nc(N)[nH]c(=O)c2N1.Cl.Cl [form B, (6R)-L-erythro-tetrahydrobiopterin dihydrochloride], which hygroscopicity [1] is on record?
A: slightly hygroscopic

Q: With C[C@H](O)[C@H](O)[C@H]1CNc2nc(N)[nH]c(=O)c2N1.Cl.Cl [form C, (6R)-L-erythro-tetrahydrobiopterin dihydrochloride] as the molecule, how does the hygroscopicity [1] read?
A: slightly hygroscopic

Q: Which “water adsorbed (hygroscopicity)” value [1] does the source give for C[C@H](O)[C@H](O)[C@H]1CNc2nc(N)[nH]c(=O)c2N1.Cl.Cl [form F, (6R)-L-erythro-tetrahydrobiopterin dihydrochloride] here?
A: about 3 percent by weight

Q: What about the hygroscopicity [1] of the same molecule?
A: slightly hygroscopic

— patent US20090018136A1, “METHODS AND COMPOSITIONS FOR THE TREATMENT OF VASCULAR DISEASE” (priority 2005, published 2009)
